Experimental data published in the supplement of paper PMC9262897, “Low-cost anti-mycobacterial drug discovery using engineered E. coli” (Nature Communications, 2022).
± gives the standard deviation of the averaged measurements.

How the values were obtained:
[1] = test system: E. coli TESEC strain (Mtb target enzyme); experiment: growth (OD600 after 10 h); higher = more growth
Method: (§1)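 Chemical-genetic validation profiles: TESEC strains (Mtb Asd or DapB, arabinose-inducible) or the wild-type control grown in a two-dimensional dilution series of drug (µM) and arabinose. Growth is read as OD600 after 10 h in triplicate.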

[2] = test system: E. coli wild-type control; experiment: growth (OD600 after 10 h); higher = more growth
Method: as §1

N=C(N)c1ccc(OCCCCCOc2ccc(C(=N)N)cc2)cc1 [Pentamidine] (TESEC target enzyme: Mtb DapB)
growth
Conditions	drug 0.7 µM	drug 1.5 µM	drug 3.5 µM	drug 7.8 µM	drug 17.6 µM	drug 39.5 µM	drug 88.9 µM
[1], arabinose 15560 nM	0.117 ± 0.018	0.131 ± 0.029	–	–	–	–	–
[1], arabinose 28008 nM	0.207 ± 0.0099	0.18 ± 0.011	–	–	–	–	–
[1], arabinose 50414 nM	0.186 ± 0.02	0.187 ± 0.011	–	–	–	–	–
[1], arabinose 90744 nM	0.207 ± 0.019	0.195 ± 0.017	–	–	–	–	–
[1], arabinose 163340 nM	0.225 ± 0.01	0.21 ± 0.017	–	–	–	–	–
[1], arabinose 294012 nM	0.218 ± 0.017	0.235 ± 0.014	–	–	–	–	–
[1], arabinose 529221 nM	0.208 ± 0.016	0.192 ± 0.026	–	–	–	–	–
[1], arabinose 952599 nM	0.2 ± 0.003	0.225 ± 0.015	–	–	–	–	–
[1], arabinose 1714678 nM	0.16 ± 0.0023	0.182 ± 0.038	–	–	–	–	–
[1], arabinose 3086420 nM	0.133 ± 0.011	0.153 ± 0.0066	–	–	–	–	–
[1], arabinose 5555556 nM	0.131 ± 0.012	0.146 ± 0.011	–	–	–	–	–
[1], arabinose 10000000 nM	0.127 ± 0.019	0.124 ± 0.021	–	–	–	–	–
[2], arabinose 15560 nM	0.275 ± 0.13	0.32 ± 0.013	0.321 ± 0.013	0.289 ± 0.013	0.269 ± 0.04	0.258 ± 0.011	–
[2], arabinose 28008 nM	0.317 ± 0.024	0.309 ± 0.021	0.301 ± 0.023	0.293 ± 0.029	0.231 ± 0.02	0.259 ± 0.0096	–
[2], arabinose 50414 nM	0.321 ± 0.028	0.318 ± 0.027	0.304 ± 0.022	0.291 ± 0.04	0.235 ± 0.016	0.233 ± 0.025	–
[2], arabinose 90744 nM	0.29 ± 0.028	0.289 ± 0.047	0.305 ± 0.032	0.312 ± 0.024	0.261 ± 0.021	0.246 ± 0.013	–
[2], arabinose 163340 nM	0.311 ± 0.036	0.319 ± 0.048	0.308 ± 0.024	0.271 ± 0.089	0.257 ± 0.0089	0.256 ± 0.0095	–
[2], arabinose 294012 nM	0.207 ± 0.039	0.29 ± 0.016	0.277 ± 0.05	0.313 ± 0.034	0.271 ± 0.0086	0.249 ± 0.022	–
[2], arabinose 529221 nM	0.168 ± 0.044	0.225 ± 0.038	0.257 ± 0.04	0.302 ± 0.038	0.257 ± 0.036	0.251 ± 0.019	–
[2], arabinose 952599 nM	0.163 ± 0.046	0.141 ± 0.027	0.201 ± 0.037	0.236 ± 0.037	0.221 ± 0.0073	0.239 ± 0.025	0.206 ± 0.046
[2], arabinose 1714678 nM	0.137 ± 0.028	0.161 ± 0.043	0.193 ± 0.0058	0.18 ± 0.012	0.179 ± 0.027	0.231 ± 0.052	0.161 ± 0.0092
[2], arabinose 3086420 nM	0.13 ± 0.011	0.149 ± 0.0075	0.156 ± 0.032	0.185 ± 0.017	0.113 ± 0.015	0.145 ± 0.018	0.157 ± 0.018
[2], arabinose 5555556 nM	0.125 ± 0.011	0.126 ± 0.014	0.177 ± 0.033	0.203 ± 0.017	0.12 ± 0.013	0.136 ± 0.028	0.16 ± 0.011
[2], arabinose 10000000 nM	0.115 ± 0.0078	0.151 ± 0.007	0.13 ± 0.012	0.16 ± 0.0096	0.129 ± 0.021	0.131 ± 0.06	–

Nc1nc2ccc(OC(F)(F)F)cc2s1 [Riluzole] (TESEC target enzyme: Mtb Asd)
growth
Conditions	drug 1.7 µM	drug 3.9 µM	drug 8.7 µM	drug 19.5 µM	drug 43.9 µM	drug 98.8 µM	drug 222.2 µM
[1], arabinose 15560 nM	0.165 ± 0.034	0.155 ± 0.016	–	–	–	–	–
[1], arabinose 28008 nM	0.133 ± 0.0035	0.157 ± 0.01	–	–	–	–	–
[1], arabinose 50414 nM	0.166 ± 0.027	0.157 ± 0.024	–	–	–	–	–
[1], arabinose 90744 nM	0.192 ± 0.031	0.171 ± 0.015	–	–	–	–	–
[1], arabinose 163340 nM	0.22 ± 0.023	0.199 ± 0.037	–	–	–	–	–
[1], arabinose 294012 nM	0.261 ± 0.006	0.239 ± 0.023	–	–	–	–	–
[1], arabinose 529221 nM	0.271 ± 0.013	0.263 ± 0.0072	–	–	–	–	–
[1], arabinose 952599 nM	0.28 ± 0.011	0.312 ± 0.064	–	–	–	–	–
[1], arabinose 1714678 nM	0.284 ± 0.016	0.319 ± 0.022	–	–	–	–	–
[1], arabinose 3086420 nM	0.246 ± 0.03	0.237 ± 0.018	–	–	–	–	–
[1], arabinose 5555556 nM	0.236 ± 0.039	0.223 ± 0.013	–	–	–	–	–
[1], arabinose 10000000 nM	0.215 ± 0.026	0.224 ± 0.035	–	–	–	–	–
[2], arabinose 15560 nM	0.226 ± 0.0094	0.226 ± 0.02	0.232 ± 0.0087	0.219 ± 0.025	0.202 ± 0.011	0.188 ± 0.011	–
[2], arabinose 28008 nM	0.2085 ± 0.00026	0.207 ± 0.048	0.219 ± 0.013	0.223 ± 0.014	0.208 ± 0.019	0.197 ± 0.019	–
[2], arabinose 50414 nM	0.234 ± 0.012	0.217 ± 0.031	0.222 ± 0.013	0.235 ± 0.021	0.207 ± 0.01	0.202 ± 0.012	–
[2], arabinose 90744 nM	0.232 ± 0.015	0.243 ± 0.021	0.222 ± 0.0036	0.286 ± 0.1	0.22 ± 0.01	0.205 ± 0.014	–
[2], arabinose 163340 nM	0.227 ± 0.011	0.236 ± 0.016	0.232 ± 0.0088	0.237 ± 0.0026	0.217 ± 0.027	0.216 ± 0.018	–
[2], arabinose 294012 nM	0.229 ± 0.0098	0.227 ± 0.014	0.2601 ± 0.0022	0.231 ± 0.008	0.221 ± 0.013	0.216 ± 0.009	–
[2], arabinose 529221 nM	0.227 ± 0.029	0.236 ± 0.022	0.226 ± 0.0028	0.208 ± 0.054	0.221 ± 0.0048	0.231 ± 0.087	–
[2], arabinose 952599 nM	0.2317 ± 0.0022	0.226 ± 0.039	0.263 ± 0.012	0.207 ± 0.068	0.233 ± 0.013	0.235 ± 0.044	0.123 ± 0.014
[2], arabinose 1714678 nM	0.195 ± 0.013	0.2 ± 0.017	0.235 ± 0.017	0.193 ± 0.051	0.233 ± 0.0074	0.213 ± 0.013	0.115 ± 0.0052
[2], arabinose 3086420 nM	0.148 ± 0.03	0.149 ± 0.0094	0.183 ± 0.024	0.214 ± 0.11	0.236 ± 0.011	0.231 ± 0.046	0.122 ± 0.01
[2], arabinose 5555556 nM	0.154 ± 0.028	0.157 ± 0.023	0.196 ± 0.081	0.157 ± 0.041	0.171 ± 0.037	0.19 ± 0.018	0.126 ± 0.011
[2], arabinose 10000000 nM	0.148 ± 0.0063	0.165 ± 0.047	0.146 ± 0.0043	0.21 ± 0.12	0.162 ± 0.068	0.202 ± 0.037	–
